Data on 10 molecules can be found in the supplement of paper PMC6004109.

Structures are written as SMILES.

Holding throughout (settings): temperature: 37 °C
Assay [1] has as its system Candida glabrata ZIM 2365 (RPMI). Kind of assay: FICI minimum (fractional inhibitory concentration index, Loewe) (dimensionless); higher = less synergy / more antagonism. In short, it runs like this:
(§1)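 CLSI M27-A3 checkerboard broth microdilution of two-drug combinations against yeast strains, in RPMI for clinical isolates or YPD for C. glabrata ATCC 2001 and its deletion mutant. An inoculum of 3–5 × 10^3 cells/ml (100 µl) was added to 100 µl drug dilutions, incubated at 37 °C and read as background-subtracted OD600 at 48 h, in at least biological triplicates. The value is the minimum or maximum Loewe fractional inhibitory concentration index over the combination surface, summing MIC-combination/MIC-alone ratios (MIC50 or MIC90 by drug).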

Assay [2] has as its system Saccharomyces cerevisiae ZIM 2247 (RPMI). The description is as above. In short, it runs like this: as §1
Assay [3] deals with Candida glabrata ZIM 2385 (RPMI). The description is as above. In short, it runs like this:
as §1

The test system of assay [4] is Candida glabrata ZIM 2344 (RPMI). The assay is described as above. Put shortly:
as §1

Assay [5] has as its system Candida glabrata ZIM 2382 (RPMI). Described as above. Put shortly: as §1
For assay [6], the system named is Saccharomyces cerevisiae ZIM 2255 (RPMI). The description is as above. In short, it runs like this:
as §1

The subject of assay [7] is Candida glabrata ZIM 2369 (RPMI). The assay is described as above. Put shortly:
as §1

The subject of assay [8] is Saccharomyces cerevisiae ZIM 2269 (RPMI). Described as above. Put shortly:
as §1

In assay [9] the test system is Candida glabrata ZIM 2389 (RPMI). Described as above. In short, it runs like this: as §1
Assay [10] concerns Saccharomyces cerevisiae ZIM 2260 (RPMI). Described as above. Put shortly: as §1
Assay [11] concerns Candida glabrata ATCC 2001 (YPD). The assay is described as follows: Bliss independence sum of statistically significant ΔE (measured minus predicted growth inhibition) over checkerboard surface (fraction (sum of ΔE; 1 = 100%)); higher = more synergy.
For assay [12], the system named is Candida glabrata ATCC 2001 pdr1 deletion mutant (YPD). The assay is described as above.
Assay [13] deals with Candida glabrata ATCC 2001 (YPD). The assay is described as follows: FICI minimum (fractional inhibitory concentration index, Loewe) (dimensionless); higher = less synergy / more antagonism. Put shortly:
as §1

The subject of assay [14] is Candida glabrata ATCC 2001 pdr1 deletion mutant (YPD). Described as above. In short, it runs like this:
as §1

Assay [15] has as its system Candida glabrata ATCC 2001 (YPD). Kind of assay: FICI maximum (fractional inhibitory concentration index, Loewe) (dimensionless); higher = less synergy / more antagonism. Put shortly: as §1
Assay [16] deals with Candida glabrata ATCC 2001 pdr1 deletion mutant (YPD). The description is as above. Put shortly:
as §1

On to `CC1(C)S[C@@H]2[C@H](NC(=O)[C@H](N)c3ccc(O)cc3)C(=O)N2[C@H]1C(=O)O` [amoxicillin] + CCC(C)n1ncn(-c2ccc(N3CCN(c4ccc(OCC5COC(Cn6cncn6)(c6ccc(Cl)cc6Cl)O5)cc4)CC3)cc2)c1=O [itraconazole], for which the FICI minimum worked out at 0.562 in assay [1]; 0.508 in assay [2]; 1.01 in [3]; 0.0703 in [4]; 1.01 in assay [5]; 1.01 in assay [6]. The FICI minimum turned out to be 1.01 in assay [7], 1 in [8], 1.01 in assay [9] and 1.01 in assay [10].
As for `CC1(C)S[C@@H]2[C@H](NC(=O)[C@H](N)c3ccc(O)cc3)C(=O)N2[C@H]1C(=O)O` [amoxicillin] + C[C@@H]1[C@H](O)[C@@H](C)/C=C/C=C/C=C/C=C/C=C/C=C/C=C/[C@H](O[C@@H]2O[C@H](C)[C@@H](O)[C@H](N)[C@@H]2O)C[C@@H]2O[C@](O)(C[C@@H](O)C[C@@H](O)[C@H](O)CC[C@@H](O)C[C@@H](O)CC(=O)O[C@H]1C)C[C@H](O)[C@H]2C(=O)O [amphotericin B], the FICI minimum amounted to 0.258 in assay [1]; 1.01 in assay [2]; 0.508 in [3]; 0.133 in [4]; 0.508 in assay [5]; 1.01 in [6]. Besides, the FICI minimum came out at 1.01 in [7], 1.01 in assay [8], 0.508 in [9] and 1.01 in assay [10].
Take `CN(Cc1cnc2nc(N)nc(N)c2n1)c1ccc(C(=O)N[C@@H](CCC(=O)O)C(=O)O)cc1` [methotrexate] + CCC(C)n1ncn(-c2ccc(N3CCN(c4ccc(OCC5COC(Cn6cncn6)(c6ccc(Cl)cc6Cl)O5)cc4)CC3)cc2)c1=O [itraconazole]: the FICI minimum is 0.505 in [1]; 0.505 in assay [2]; 0.505 in [3]; 1 in assay [4]; 1 in assay [5]; 1 in assay [6]. Moreover, the FICI minimum came out at 1 in assay [7], 1 in assay [8], 1 in [9] and 1.08 in assay [10].
Take `CN(Cc1cnc2nc(N)nc(N)c2n1)c1ccc(C(=O)N[C@@H](CCC(=O)O)C(=O)O)cc1` [methotrexate] + C[C@@H]1[C@H](O)[C@@H](C)/C=C/C=C/C=C/C=C/C=C/C=C/C=C/[C@H](O[C@@H]2O[C@H](C)[C@@H](O)[C@H](N)[C@@H]2O)C[C@@H]2O[C@](O)(C[C@@H](O)C[C@@H](O)[C@H](O)CC[C@@H](O)C[C@@H](O)CC(=O)O[C@H]1C)C[C@H](O)[C@H]2C(=O)O [amphotericin B]: the FICI minimum in [1] is 1; in [2], 1; in assay [3], 2; in assay [4] it was 0.656; in [5] it was 1; in assay [6], 0.516. Besides, the FICI minimum in assay [7], in [8], in [9] and in assay [10] was 1 each time.
For `CN(Cc1cnc2nc(N)nc(N)c2n1)c1ccc(C(=O)N[C@@H](CCC(=O)O)C(=O)O)cc1` [methotrexate] + OC(Cn1cncn1)(Cn1cncn1)c1ccc(F)cc1F [fluconazole], the FICI minimum in assay [1] was determined as 1; in [2], 1; in assay [3], 1; in [4], 0.505; in assay [5], 1; in assay [6], 1. Further, the FICI minimum in [7] worked out at 1; in assay [8] it was 0.656; in assay [9], 0.505; in assay [10], 1.01.
On to `COc1c(C)c2c(c(O)c1C/C=C(\C)CCC(=O)O)C(=O)OC2` [mycophenolic acid] + C[C@@H]1[C@H](O)[C@@H](C)/C=C/C=C/C=C/C=C/C=C/C=C/C=C/[C@H](O[C@@H]2O[C@H](C)[C@@H](O)[C@H](N)[C@@H]2O)C[C@@H]2O[C@](O)(C[C@@H](O)C[C@@H](O)[C@H](O)CC[C@@H](O)C[C@@H](O)CC(=O)O[C@H]1C)C[C@H](O)[C@H]2C(=O)O [amphotericin B], for which the FICI minimum in assay [1] turned out to be 0.5; in assay [2], 0.767; in assay [3], 0.5; in [4], 0.625; in [5], 0.5; in assay [6], 1. Besides, the FICI minimum in [7] stood at 0.75; in [8], 1.03; in assay [9] it was 0.531; in assay [10] it was 0.58.
Turning to `COc1c(C)c2c(c(O)c1C/C=C(\C)CCC(=O)O)C(=O)OC2` [mycophenolic acid] + OC(Cn1cncn1)(Cn1cncn1)c1ccc(F)cc1F [fluconazole], the results for the Bliss independence sum in assay [11] and in assay [12] were -2.6 and -3.21, respectively. Also, the FICI minimum in assay [1] is 1.02; in [13], 1.06; in [2], 2.02; in assay [3] it was 0.508; in assay [4], 1.01; in [5] it was 1.01. In addition, the FICI minimum in [6] was found to be 2.5; in assay [7], 1.01; in [8] it was 1.01; in assay [9], 1.01; in assay [10], 0.66; in assay [14], 1.03. Besides, the FICI maximum worked out at 2.5 in assay [15] and 2.12 in assay [16].
In the case of `C=CC[C@@H]1/C=C(\C)C[C@H](C)C[C@H](OC)[C@H]2O[C@@](O)(C(=O)C(=O)N3CCCC[C@H]3C(=O)O[C@H](/C(C)=C/[C@@H]3CC[C@@H](O)[C@H](OC)C3)[C@H](C)[C@@H](O)CC1=O)[C@H](C)C[C@@H]2OC` [tacrolimus] + CCC(C)n1ncn(-c2ccc(N3CCN(c4ccc(OCC5COC(Cn6cncn6)(c6ccc(Cl)cc6Cl)O5)cc4)CC3)cc2)c1=O [itraconazole], the FICI minimum was found to be 0.5 in assay [1]; 0.501 in assay [2]; 0.0725 in assay [3]; 0.125 in [4]; 1 in assay [5]; 0.254 in [6]. The FICI minimum is 0.25 in assay [7], 0.75 in assay [8], 0.126 in assay [9] and 0.251 in [10].
Turning to `C=CC[C@@H]1/C=C(\C)C[C@H](C)C[C@H](OC)[C@H]2O[C@@](O)(C(=O)C(=O)N3CCCC[C@H]3C(=O)O[C@H](/C(C)=C/[C@@H]3CC[C@@H](O)[C@H](OC)C3)[C@H](C)[C@@H](O)CC1=O)[C@H](C)C[C@@H]2OC` [tacrolimus] + C[C@@H]1[C@H](O)[C@@H](C)/C=C/C=C/C=C/C=C/C=C/C=C/C=C/[C@H](O[C@@H]2O[C@H](C)[C@@H](O)[C@H](N)[C@@H]2O)C[C@@H]2O[C@](O)(C[C@@H](O)C[C@@H](O)[C@H](O)CC[C@@H](O)C[C@@H](O)CC(=O)O[C@H]1C)C[C@H](O)[C@H]2C(=O)O [amphotericin B], the FICI minimum came to 0.25 in [1]; 0.0638 in assay [2]; 0.281 in assay [3]; 0.516 in assay [4]; 0.251 in assay [5]; 0.0938 in [6]. In addition, the FICI minimum worked out at 0.258 in assay [7], 0.0825 in assay [8], 0.26 in assay [9] and 0.251 in assay [10].
As for `C=CC[C@@H]1/C=C(\C)C[C@H](C)C[C@H](OC)[C@H]2O[C@@](O)(C(=O)C(=O)N3CCCC[C@H]3C(=O)O[C@H](/C(C)=C/[C@@H]3CC[C@@H](O)[C@H](OC)C3)[C@H](C)[C@@H](O)CC1=O)[C@H](C)C[C@@H]2OC` [tacrolimus] + OC(Cn1cncn1)(Cn1cncn1)c1ccc(F)cc1F [fluconazole], the FICI minimum in assay [1] stood at 1; in [2] it was 0.126; in assay [3], 1; in assay [4] it was 0.25; in [5], 0.5; in [6], 0.156. For the same molecule, the FICI minimum was found to be 0.5 in [7], 0.255 in [8], 0.253 in assay [9] and 0.135 in assay [10].
